Assay results: patent US20160279098A1, “NOVEL METHODS” (EUTHYMICS BIOSCIENCE, INC., priority 2013, published 2016)

How the values were obtained:
Format in all cases: in vivo, human
[1] = test system: patients with major depressive disorder; test: Montgomery Asberg Depression Rating Scale (MADRS) in MDD trial
Text: (§1) A multicenter, randomized, double blind, placebo- and paroxetine-controlled trial of amitifadine for major depressive disorder (MDD) non-responsive to an adequate trial of an antidepressant therapy in the current depressive episode. A sequential parallel comparison design (SPCD) is utilized. […] The study is 12 weeks in duration, with two 6-week phases. The primary outcome measure is change on the Montgomery Asberg Depression Rating Scale (MADRS). Secondary outcomes include Hamilton Rating Scale for Depression (HAM-D), Clinical Global Impression of Improvement (CGI-I), Sexual Functioning Inventory (SFI), Clinical Global Impression (Improvement and Severity versions), and the Massachusetts General Hospital (MGH) Cognitive and Physical Functioning Questionnaire (MGH-CPFQ). […]
In addition to standard inclusion criteria the trial requires: 1) diagnosis of MDD, based on the Structured Clinical Interview for DSM Disorders Clinical Trials version (SCID-CT), validated by remote independent raters using the SAFER criteria interview, 2) one and only one antidepressant therapy (ADT) failure in the current episode of MDD, treated with an adequate dose of one of an allowed standard antidepressant (paroxetine or an monoamine oxidase inhibitor (MAOI) not allowed) during the current episode for >6 weeks, with the same, adequate dose for >4 weeks, 3) HAM-D17≧18 at the end of screening phase, 4)<25% reduction in Quick Inventory of Depressive Symptoms Self-Rated (QIDS-SR) score between the screen and baseline visits. Inadequate response: defined as <50% reduction in depressive symptom severity, assessed by the MGH Antidepressant Treatment Response Questionnaire (ATRQ) administered by remote, independent raters (Targum, S. et al., CNS Neuroscience & Therapeutics, 2010, 16 (5), 322-325). […]
The primary efficacy assessment is the MADRS, administered at every study visit and clinicians complete it by using a structured interview guide developed by Massachusetts General Hospital (MGH). […] Vital signs are recorded at each visit; physical exam is performed at screen and week 12 (or early termination). […]

[2] = test system: patients with major depressive disorder; test: Sexual Functioning Inventory (SFI) in placebo- and paroxetine-controlled MDD trial; set-up: scale not given here; conditions: LOCF
Text: (§2) A sequential parallel comparison design (SPCD) is utilized. […] The study is 12 weeks in duration, with two 6-week phases. The primary outcome measure is change on the Montgomery Asberg Depression Rating Scale (MADRS). Secondary outcomes include Hamilton Rating Scale for Depression (HAM-D), Clinical Global Impression of Improvement (CGI-I), Sexual Functioning Inventory (SFI), Clinical Global Impression (Improvement and Severity versions), and the Massachusetts General Hospital (MGH) Cognitive and Physical Functioning Questionnaire (MGH-CPFQ). Male and female patients, between the ages of 18-65, are eligible who had MDD, based on the Structured Clinical Interview for DSM Disorders (SCID) interview, and validated by remote raters, a history of non-response to an adequate trial of an antidepressant during the current episode of MDD (an adequate dose for >8 weeks), and a HAM-D-17 score of >18 at screening.
In addition to standard inclusion criteria the trial requires: 1) diagnosis of MDD, based on the Structured Clinical Interview for DSM Disorders Clinical Trials version (SCID-CT), validated by remote independent raters using the SAFER criteria interview, 2) one and only one antidepressant therapy (ADT) failure in the current episode of MDD, treated with an adequate dose of one of an allowed standard antidepressant (paroxetine or an monoamine oxidase inhibitor (MAOI) not allowed) during the current episode for >6 weeks, with the same, adequate dose for >4 weeks, 3) HAM-D17≧18 at the end of screening phase, 4)<25% reduction in Quick Inventory of Depressive Symptoms Self-Rated (QIDS-SR) score between the screen and baseline visits. Inadequate response: defined as <50% reduction in depressive symptom severity, assessed by the MGH Antidepressant Treatment Response Questionnaire (ATRQ) administered by remote, independent raters (Targum, S. et al., CNS Neuroscience & Therapeutics, 2010, 16 (5), 322-325). An adequate trial is defined as an ADT>6 weeks at least at the minimum dose specified in the MGH ATRQ.
The SCID-CT is administered by study clinicians at the screening visit to diagnose Axis I disorders. The remote, independent raters also administer the SAFER Criteria Inventory (SCI) during the screening phase to assess whether the MDD is a “valid” clinical entity.
The primary efficacy assessment is the MADRS, administered at every study visit and clinicians complete it by using a structured interview guide developed by Massachusetts General Hospital (MGH). The primary tolerability assessment is the change in the SFI, completed by the patient at every study visit. The MGH-CPFQ, a brief self-report inventory to assess rates of significant cognitive symptoms, sleepiness and fatigue, is filled out by patients at every visit. The Columbia-Suicide Severity Rating Scale (C-SSRS) (Posner K. et al., American Journal of Psychiatry, 2011, 168 (12)1266-77) is administered at every visit. Vital signs are recorded at each visit; physical exam is performed at screen and week 12 (or early termination). Laboratory tests are obtained at screen, baseline, and weeks 2, 4, 6, 8, 10, 12 (or early termination). Twelve-lead ECGs are obtained at screen, baseline, and weeks 3, 6, 9, 12 (or early termination). Consumptive habits (smoking, alcohol, and caffeinated beverages) are recorded at every visit. Adverse events and concomitant medications are collected at every visit.

[3] = test system: patients with major depressive disorder; test: Clinical Global Impression of Improvement (CGI-I) in MDD trial; conditions: amitifadine 50 mg or 100 mg; paroxetine 40 mg at both 6 and 12 weeks
Text: as §2, with “A multicenter, randomized, double blind, placebo- and paroxetine-controlled trial of amitifadine for major depressive disorder (MDD) non-responsive to an adequate trial of an antidepressant therapy in the current depressive episode. A sequential” for “A sequential”, “at screening. […]” for “at screening.”

[4] = test system: patients with major depressive disorder; test: Sexual Functioning Inventory (SFI) in placebo- and paroxetine-controlled MDD trial; set-up: Mean Change from Baseline SFI, Item 3 / Mean Change from Baseline SFI, Item 4 / Mean Change from Baseline SFI, Item 5 / Mean Change from Baseline SFI Total / Mean Change from Baseline SFI, Item 1 / Mean Change from Baseline SFI, Item 2: scale not given here; conditions: amitifadine 100 mg
[5] = test system: patients with major depressive disorder; test: Vital signs (heart rate, blood pressure) in MDD trial; conditions: amitifadine 50 mg and 100 mg
Text: as §1
The primary efficacy assessment is the MADRS, administered at every study visit and clinicians complete it by using a structured interview guide developed by Massachusetts General Hospital (MGH). […] Vital signs are recorded at each visit; physical exam is performed at screen and week 12 (or early termination). […] Consumptive habits (smoking, alcohol, and caffeinated beverages) are recorded at every visit. […]

[6] = both genders, amitifadine 100 mg vs paroxetine 40 mg
[7] = female, amitifadine 100 mg, compare vs placebo
[8] = LOCF, female, compare vs placebo

With `Fc1ccc([C@@H]2CCNC[C@H]2COc2ccc3c(c2)OCO3)cc1` [Paroxetine, reference compound] the “improvement compared to both placebo and amitifadine 50 mg” value ([1]; exploratory analyses, paroxetine 40 mg) was “significantly better improvement”, the “Mean Change from Baseline SFI Total” value [2, 6] was −1.52 and the “Mean Change from Baseline SFI, Item 1” value [2, 6] was −0.57. The “Mean Change from Baseline SFI, Item 2” value [2, 6] was −0.45, the “Mean Change from Baseline SFI, Item 3” value [2, 6] was −0.27 and the “Mean Change from Baseline SFI, Item 4” value [2, 6] was −0.13. For the same compound, the “Mean Change from Baseline SFI, Item 5” value [2, 6] was −0.23 and the “CGI-Improvement compared to placebo” value [3] was “significant difference”.
For `Clc1ccc([C@]23CNC[C@H]2C3)cc1Cl` [Amitifadine], the “difference between paroxetine and amitifadine 100 mg in improvement” value ([1]; exploratory analyses) was “non-significant”, the “MADRS change from baseline compared to placebo” value ([1]; primary analysis, amitifadine 50 mg or 100 mg, paroxetine 40 mg) was “no significant difference” and the “Mean Change from Baseline SFI Total” value [2, 6] was −3.86. For the same compound, the “Mean Change from Baseline SFI, Item 1” value [2, 6] was −1.02, the “Mean Change from Baseline SFI, Item 2” value [2, 6] was −1.00 and the “Mean Change from Baseline SFI, Item 3” value [2, 6] was −0.80. For the same compound, the “Mean Change from Baseline SFI, Item 4” value [2, 6] was −0.79, the “Mean Change from Baseline SFI, Item 5” value [2, 6] was −1.00 and the “Mean Change from Baseline SFI, Item 2” value [2, 7] was −1.12. For the same compound, the “Mean Change from Baseline SFI, Item 5” value [2, 7] was −1.09, the “Mean Change from Baseline SFI Total” value [4, 8] was −4.41 and the “Mean Change from Baseline SFI, Item 1” value [4, 8] was −1.16. The “Mean Change from Baseline SFI, Item 3” value [4, 8] was −0.97, the “Mean Change from Baseline SFI Total” value ([4]; LOCF, male, compare vs placebo) was −3.12 and the “Mean Change from Baseline SFI, Item 1” value ([4]; LOCF, male, compare vs placebo) was −0.83. The “Mean Change from Baseline SFI, Item 2” value ([4]; LOCF, male, compare vs placebo) was −0.83, the “Mean Change from Baseline SFI, Item 3” value ([4]; LOCF, male, compare vs placebo) was −0.58 and the “Mean Change from Baseline SFI, Item 4” value ([4]; LOCF, male, compare vs placebo) was −0.79. The “Mean Change from Baseline SFI, Item 5” value ([4]; LOCF, male, compare vs placebo) was −0.88, the “individual items of the SFI (anorgasmia, arousal, overall satisfaction) versus paroxetine” value ([4]; most individual items) was “significantly less impairing” and the “SFI change from baseline compared with placebo in women” value ([4]; post-hoc analyses by gender, women) was “significant improvement”. For the same compound, the “changes in heart rate or blood pressure” value [5] was “Neither dose is associated with significant changes” and the “CGI-Improvement compared to placebo” value [3] was “no significant differences”.
